The test system of experiment [1] is PPARα target genes (ACO, PDK-4, Apo CIII) in liver. Put plainly: Hepatic expression of PPARα target genes (quantitative RT-PCR) in the ApoE2/E2 mouse. The settings on record: 10 and 100 mpk, 7 days, normalized to 36B4. Type of experiment: in vivo. An excerpt: The PPARα agonist properties previously measured in vitro should be translated at the hepatic level by a change in the level of expression of the target genes directly under the control of the PPARα receptor: the genes that were studied in these experiments are those coding for ACO (a key enzyme in the mechanism of β-oxidation of fatty acids), PDK-4 (an enzyme of carbohydrate metabolism) and Apo CIII (apolipoprotein involved in lipid metabolism). This change in gene expression after treatment with the compounds according to the invention is therefore also an indicator of their hypolipemic character.
Apo E2/E2 transgenic mice were kept in a cycle of light and darkness of 12 hours/12 hours at a constant temperature of 20±3° C. After acclimation for one week, the mice were weighed and put into groups of 6 animals selected in such a way that the distribution of their bodyweight and of their plasma lipid values determined first before the experiment are uniform. The compounds tested were suspended in carboxymethylcellulose (Sigma C4888) and administered at the chosen dose by stomach tube, at a rate of once a day for 7 days at the chosen dose. The animals had free access to water and food. At the end of the experiment, the animals were anesthetized after fasting for 4 hours, a blood sample was taken on anticoagulant (EDTA), then the mice were weighed and euthanased. The plasma was separated by centrifugation at 3000 rev/min for 20 minutes, and the samples were stored at +4° C. for the biochemical assays. Samples of liver were taken and frozen immediately in liquid nitrogen and then stored at −80° C. for subsequent analyses.
Total RNA was extracted from fragments of liver using the NucleoSpin® 96 RNA kit (Macherey Nagel, Hoerdt, France) according to the manufacturer's instructions. 1 μg of total RNA (quantified using the Ribogreen RNA quantification kit (Molecular Probes)) was then reverse transcribed to complementary DNA by a reaction of 1 hour at 37° C. in a total volume of 20 μl containing buffer 1× (Sigma), 1.5 mM of DTT, 0.18 mM of dNTPs (Promega), 200 ng of pdN6 (Amersham), 30U of RNase inhibitor (Sigma) and 1 μl of MMLV-RT (Sigma).
The quantitative PCR experiments were performed using the MyiQ Single-Color Real-Time PCR Detection System (Biorad, Marnes-la-Coquette, France) and were carried out using the iQ SYBR Green Supermix kit according to the supplier's recommendations, in 96-well plates, on 5 μl of diluted reverse transcription reaction mixtures, with a hybridization temperature of 55° C. Specific primer pairs of the genes under investigation were used:
The amount of fluorescence emitted is directly proportional to the amount of complementary DNA present at the start of the reaction and amplified during PCR. For each target investigated, a range is prepared by successive dilutions of a pool consisting of a few μl of different reverse transcription reactions. The relative levels of expression of each target are thus determined using the curves of efficacy obtained with the scale points.
The levels of expression of the genes of interest were then normalized relative to the level of expression of the 36B4 reference gene (whose specific primers are: […]
The induction factor, i.e. the ratio of the relative signal (induced by the compound according to the invention) to the mean of the relative values of the control group, was then calculated for each sample. The higher this factor, the more the compound has a character of activation of gene expression. The final result is represented as the mean of the induction values in each experimental group.

The target of another experiment is T1, hPPARα (Homo sapiens, UniProt Q07869).
T1 construct: corresponding to the DEF domains (structural elements of the promoter of the PPARs: D=hinge, EF=ligand fixation domain and AF2 fixation site); expressed in transfected cells; host or cells: COS-7 (monkey kidney fibroblasts)
T1 sequence (Q07869 239-466 limits assumed): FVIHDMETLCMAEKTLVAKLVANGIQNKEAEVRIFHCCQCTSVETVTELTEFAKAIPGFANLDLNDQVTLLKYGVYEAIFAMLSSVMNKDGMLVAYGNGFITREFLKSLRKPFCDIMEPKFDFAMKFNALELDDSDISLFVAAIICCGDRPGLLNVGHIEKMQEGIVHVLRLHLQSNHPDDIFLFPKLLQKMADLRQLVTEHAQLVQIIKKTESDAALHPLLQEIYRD
Put plainly: Gal4-hPPARα chimera transactivation (luciferase) in COS-7 cells. Type of experiment: cell-based. The note with it: COS-7 cells, Gal4-hPPARα, 24 hours; for EC50: luciferase, read-out: PPARα EC50; for Emax: relative to maximum activation obtained with fenofibric acid, read-out: PPARα TOP % (maximum activation). The method in brief:
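COS-7 cells transiently co-transfected with Gal4 DBD–human PPARα, γ or δ DEF-domain chimeras plus Gal4(RE)_TkpGL3 luciferase reporter (1/10), seeded serum-free, then compound-treated 24 h at 37 °C in 1% Ultroser. Luciferase read after lysis; EC50 and TOP % relative to maximal activation by fenofibric acid (α), rosiglitazone (γ) or GW501516 (δ).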

These results are taken from patent publication US8461183B2, “PPAR agonist compounds, preparation and uses” (Genfit, priority 2008, dated 2013).

The term EC50 denotes the concentration needed to bring the measured effect to its halfway point.

Structures are written as SMILES.

For `COc1nc(-c2ccccc2)ccc1COc1ccc(OCC(=O)O)cc1` [Cpd 2, 2-(4-((2-methoxy-6-phenylpyridin-3-yl)methoxy)phenoxy)ethanoic acid], in experiment [1], the “hepatic expression of gene coding for ACO” value is given as “hepatic overexpression”, the “hepatic expression of gene coding for ApoCIII” value is given as “significant inhibition” and the “hepatic expression of gene coding for PDK-4” value is “hepatic overexpression”. On hPPARα, the 50% effective concentration (EC50) is 143 nM and the Emax was found to be 48.3%.

On to `COc1nc(-c2ccccc2)ccc1CNc1ccc(OCC(=O)O)cc1` [Cpd 4, 2-(4-(((2-methoxy-6-phenylpyridin-3yl)methyl)amino)phenoxy)ethanoic acid], for which, in experiment [1], the “hepatic expression of gene coding for ACO” value was “hepatic overexpression”, the “hepatic expression of gene coding for ApoCIII” value was “significant inhibition” and the “hepatic expression of gene coding for PDK-4” value is “hepatic overexpression”. Besides, on hPPARα, the EC50 is 1470 nM and the Emax worked out at 66.7%.

For `COc1nc(-c2ccc(C(F)(F)F)cc2)ccc1COc1ccc(OCC(=O)O)cc1` [Cpd 24, 2-(4-((2-methoxy-6-(4-(trifluoromethyl)phenyl)pyridin-3-yl)methoxy)-phenoxy)ethanoic acid], at hPPARα, the EC50 was determined as 371 nM and the Emax came to 76.8%.

Take `COc1nc(-c2ccccc2)ccc1CNc1ccc(CCC(=O)O)cc1` [Cpd 19, 3-(4-(((2-methoxy-6-phenylpyridin-3-yl)methyl)amino)phenyl)propanoic acid]: on hPPARα, the EC50 stood at 2370 nM and the Emax turned out to be 68%.
